Assay results taken from patent US20090163515A1, “Compounds Which Bind to the Active Site of Protein Kinase Enzymes” (Biofocus Discovery Ltd., priority 2003, published 2009).

System: ROK
Test: ROK activity assay
Type: biochemical
Design: key: +: active; ++: more active; +++: very active
Settings: assays conducted at 1-100 μM

SMILES	ROK activity
O=[N+]([O-])c1cccc(Nc2cncc(-c3ccncc3)c2)c1 [[3,4′]Bipyridinyl-5-yl-(3-nitro-phenyl)-amine]	++
NC(=O)c1cccc(-c2cncc(NCc3ccc4c(c3)OCO4)c2)c1 [3-{5-[(Benzo[1,3]dioxol-5-ylmethyl)-amino]-pyridin-3-yl}-benzamide]	+
Oc1ccc(-c2cncc(NCC3CCCCC3)c2)cc1 [4-[5-(Cyclohexylmethyl-amino)-pyridin-3-yl]-phenol]	+
NC(=O)c1cccc(-c2cncc(NCc3ccoc3)c2)c1 [3-{5-[(Furan-3-ylmethyl)-amino]-pyridin-3-yl}-benzamide]	+
Clc1cccc(CNc2cnc(-c3ccncc3)cn2)c1 [(3-Chloro-benzyl)-(5-pyridin-4-yl-pyrazin-2-yl)-amine]	++
Fc1ccc(CNc2cncc(-c3ccncc3)c2)cc1F [[3,4′]Bipyridinyl-5-yl-(3,4-difluoro-benzyl)-amine]	++
CC(C)C(CO)Nc1cnc(-c2ccncc2)cn1 (centres unmarked) [3-Methyl-2-(5-pyridin-4-yl-pyrazin-2-ylamino)-butan-1-ol]	+
COc1ccc(-c2cnc(NCCc3ccncc3)cn2)cc1 [[5-(4-Methoxy-phenyl)-pyrazin-2-yl]-(2-pyridin-4-yl-ethyl)-amine]	++
COc1cncc(-c2cncc(NCc3cccc(O)c3)c2)c1 [3-[(5′-Methoxy-[3,3′]bipyridinyl-5-ylamino)-methyl]-phenol]	+
Oc1ccc(-c2cncc(NCc3cccc(Cl)c3)c2)cc1 [4-[5-(3-Chloro-benzylamino)-pyridin-3-yl]-phenol]	++
COc1ccc(-c2cnc(NCCc3ccncc3)cn2)cc1OC [[5-(3,4-Dimethoxy-phenyl)-pyrazin-2-yl]-(2-pyridin-4-yl-ethyl)-amine]	++
COc1ccc(CNc2cncc(-c3ccc(O)cc3)c2)cc1O [5-{[5-(4-Hydroxy-phenyl)-pyridin-3-ylamino]-methyl}-2-methoxy-phenol]	++
Oc1ccc(-c2cncc(Nc3cccc(O)c3)c2)cc1 [4-[5-(3-Hydroxy-phenylamino)-pyridin-3-yl]-phenol]	++
NC(=O)c1cccc(-c2cncc(Nc3cccc(O)c3)c2)c1 [3-[5-(3-Hydroxy-phenylamino)-pyridin-3-yl]-benzamide]	++
COc1ccc(NC(=O)c2ccc(-c3cnc(NCCc4ccncc4)cn3)cc2)cc1 [N-(4-Methoxy-phenyl)-4-[5-(2-pyridin-4-yl-ethylamino)-pyrazin-2-yl]-benzamide]	++
Oc1ccc(-c2cnc(NCc3ccccc3)cn2)cc1 [4-(5-Benzylamino-pyrazin-2-yl)-phenol]	++
CSc1ccc(-c2cnc(NCCc3ccncc3)cn2)cc1 [[5-(4-Methylsulfanyl-phenyl)-pyrazin-2-yl]-(2-pyridin-4-yl-ethyl)-amine]	++
c1cncc(CCNc2cnc(-c3ccc4ccccc4c3)cn2)c1 [(5-Naphthalen-2-yl-pyrazin-2-yl)-(2-pyridin-3-yl-ethyl)-amine]	+
Oc1ccc(-c2cncc(NCc3ccc(Cl)cc3)c2)cc1 [4-[5-(4-Chloro-benzylamino)-pyridin-3-yl]-phenol]	++
c1cc(-c2cnc(NCc3ccc4c(c3)OCO4)cn2)ccn1 [Benzo[1,3]dioxol-5-ylmethyl-(5-pyridin-4-yl-pyrazin-2-yl)-amine]	++
COc1ccc(CNc2cncc(-c3ccc(O)cc3)c2)cc1OC [4-[5-(3,4-Dimethoxy-benzylamino)-pyridin-3-yl]-phenol]	+
c1ccc2cc(CNc3cncc(-c4ccncc4)c3)ccc2c1 [[3,4′]Bipyridinyl-5-yl-naphthalen-2-ylmethyl-amine]	++
Oc1cccc(-c2cncc(Nc3ccc4ccccc4c3)c2)c1 [3-[5-(Naphthalen-2-ylamino)-pyridin-3-yl]-phenol]	+
